Patent US20210315840A1, “SOLID ORAL DOSAGE FORMS OF KETAMINE DERIVATIVES” (priority 2017, published 2021)

How the values were obtained:
5-HT1, Non-Selective = test: Binding assay 5-HT1, Non-Selective
Text: (§1) 2R,6R-hydroxynorketamine was investigated for binding to monoamine oxidases A and B, monoamine transporters, as well as a variety of 5HT receptors.
An absence of interaction between 2R,6R-hydroxynorketamine and 5HT1 receptors is also of note. Rare postmarketing reports have described patients with weakness, hyperreflexia, and incoordination following the use of an SSRI and the 5HT1 agonist, sumatriptan. The possibility of such interactions should also be considered if other 5HT1 agonists are to be used in combination with SSRIs.

CYP3A4 = CYP3A4 (Homo sapiens, UniProt P08684); test: CYP inhibition assay CYP3A4, substrate testosterone; format: in vitro ADME; details: for % Inhibition: Substrate = testosterone
Sequence of CYP3A4 (P08684 whole entry): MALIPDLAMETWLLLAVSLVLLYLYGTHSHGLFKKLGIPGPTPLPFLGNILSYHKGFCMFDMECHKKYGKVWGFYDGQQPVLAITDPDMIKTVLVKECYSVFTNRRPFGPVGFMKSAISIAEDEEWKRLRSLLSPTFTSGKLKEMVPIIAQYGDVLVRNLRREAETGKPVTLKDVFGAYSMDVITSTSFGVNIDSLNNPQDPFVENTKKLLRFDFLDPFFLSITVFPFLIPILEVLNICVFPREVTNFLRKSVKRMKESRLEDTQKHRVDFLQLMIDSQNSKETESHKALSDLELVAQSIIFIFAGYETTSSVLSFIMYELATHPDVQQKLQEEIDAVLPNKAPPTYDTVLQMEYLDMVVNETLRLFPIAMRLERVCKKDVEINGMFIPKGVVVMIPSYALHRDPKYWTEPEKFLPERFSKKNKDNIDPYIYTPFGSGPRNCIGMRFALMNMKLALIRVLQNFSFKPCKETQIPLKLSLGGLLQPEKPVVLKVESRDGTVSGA
Text: Cytochrome P450s (CYPs) are a family of enzymes that play a primary role in the metabolism of a wide variety of drugs. 2R,6R-hydroxynorketamine was investigated for its potential to inhibit the action of 7 key CYP enzymes using an inhibition assay measuring reduction in the formation of metabolites compared to control.

[1] = target: norepinephrine transporter (Homo sapiens, UniProt P23975); test: Binding assay norepinephrine transporter
Sequence of norepinephrine transporter (P23975 whole entry, species assumed): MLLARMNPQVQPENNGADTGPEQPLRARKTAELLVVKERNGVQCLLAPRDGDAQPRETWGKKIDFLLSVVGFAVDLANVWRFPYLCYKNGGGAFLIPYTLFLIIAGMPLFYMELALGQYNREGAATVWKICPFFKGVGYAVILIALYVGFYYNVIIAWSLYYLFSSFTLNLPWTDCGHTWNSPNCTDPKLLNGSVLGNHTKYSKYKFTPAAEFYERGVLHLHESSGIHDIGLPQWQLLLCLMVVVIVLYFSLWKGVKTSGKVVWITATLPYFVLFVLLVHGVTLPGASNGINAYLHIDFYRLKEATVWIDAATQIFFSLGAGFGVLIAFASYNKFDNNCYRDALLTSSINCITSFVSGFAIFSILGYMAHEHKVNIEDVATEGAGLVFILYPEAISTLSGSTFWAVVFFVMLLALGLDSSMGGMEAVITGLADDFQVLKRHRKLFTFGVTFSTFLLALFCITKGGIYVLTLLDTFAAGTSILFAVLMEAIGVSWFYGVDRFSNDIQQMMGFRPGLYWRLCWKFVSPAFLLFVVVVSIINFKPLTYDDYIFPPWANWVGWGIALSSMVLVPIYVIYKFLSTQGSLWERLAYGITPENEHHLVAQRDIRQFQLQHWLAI
Text: as §1

[2] = Turbidimetric aqueous solubility; format: physicochemical

N[C@@]1(c2ccccc2Cl)CCC[C@@H](O)C1=O [2R,6R-hydroxynorketamine, 2R,6R-2-(2-Chlorophenyl)-2-(amino)-6-hydroxycyclohexanone]
% Inhibition of Control Specific Binding (5-HT1, Non-Selective): −9% | % of Control Specific Binding (5-HT1, Non-Selective): 105.4% | binding to 5HT1 receptors (in words) (5-HT1, Non-Selective): does not bind | % Inhibition (CYP3A4; 0.4 μM): 1.62% | % Inhibition (CYP3A4; 1 μM): −0.509% | % Inhibition (CYP3A4; 4 μM): 7.04% | % Inhibition (CYP3A4; 10 μM): 12.4% | % Inhibition (CYP3A4; 40 μM): 35.2% | % Inhibition (CYP3A4; 100 μM): 53.4% | IC50 (CYP3A4; substrate testosterone): 81 µM | % Inhibition of Control Specific Binding [1]: −16% | % of Control Specific Binding [1]: 117.6% | solubility (in words) [2]: high
